Reference: publication PMC7704793 (Bioorganic & medicinal chemistry letters, 2020)

Experiments:
MRSA ATCC 43300 = experiment: Inhibition of MRSA biofilm formation, crystal violet reporter assay; format: cell-based, Staphylococcus aureus; settings: SAR discussion
CCD-18 Co cells = experiment: MTT cytotoxicity assay in normal human colon cells; format: cell-based; settings: day 1, CCD-18 Co cells

Row | Compound | MRSA biofilm inhibition activity compared to the parent 5a (in words) (MRSA ATCC 43300) | also measured
1 | Cc1ccc(-c2cc(-c3nc4ccccc4c(=O)[nH]3)nc(N)n2)cc1 [Compound 5b] | reduced activity | –
2 | COc1ccc(-c2cc(-c3nc4ccccc4c(=O)[nH]3)nc(N)n2)cc1OC [Compound 5e] | reduced activity | –
3 | COc1cc(OC)c(-c2cc(-c3nc4ccccc4c(=O)[nH]3)nc(N)n2)c(OC)c1 [Compound 5h] | – | cellular toxicity (MTT) (CCD-18 Co cells; 50 μM, versus DMSO controls): minimal
4 | COc1cc(-c2cc(-c3nc4ccccc4c(=O)[nH]3)nc(N)n2)cc(OC)c1OC [Compound 5i] | considerably reduced activity | –
5 | CSc1ccc(-c2cc(-c3nc4ccccc4c(=O)[nH]3)nc(N)n2)cc1 [Compound 5j] | – | cellular toxicity (MTT) (CCD-18 Co cells; 50 μM, versus DMSO controls): more cytotoxic
6 | Nc1nc(-c2cccc(Br)c2)cc(-c2nc3ccccc3c(=O)[nH]2)n1 [Compound 5k] | – | cellular toxicity (MTT) (CCD-18 Co cells; 12.5 μM (lowest concentration used)): significant toxicity
7 | Nc1nc(-c2cccc(OCc3ccccc3)c2)cc(-c2nc3ccccc3c(=O)[nH]2)n1 [Compound 5r] | reduced activity | –
